The results in this text go back to patent publication US20230225313A1, “Methods and Compositions for Use in Glued-Wood Products” (ARXADA AG, priority 2020, published 2023).

Structures are written as SMILES. Like-named read-outs stand apart in the source and are kept apart here.

This series in a line: Thermogravimetric analysis (TGA), degradation temperature. The series is classed as physicochemical. The protocol: The choice of suitable thermoplastics must also account for the biocide degradation temperature. The temperature of the melted thermoplastic at the point of biocide addition can be any temperature up to the biocide degradation temperature, preferably at least 20° C., and more preferably at least 40° C. below the biocide degradation temperature. Biocide degradation temperatures are most conveniently determined by thermogravimetric analysis (TGA). Unless hot melt mixing is to be performed in an inert atmosphere, TGA should be performed in air to account for oxidative degradation. TGA can be performed according to ISO 11358-1:2014.
Imidacloprid has a degradation temperature of about 274° C. (onset of weight loss, see the thermogravimetric analysis data in FIG. 1). Accordingly, the mixing of imidacloprid with any thermoplastic by hot melt extrusion (HME) should be performed at temperatures less than about 270° C.
Degradation temperatures were established by thermogravimetric analysis (TGA, see FIG. 1) with the following results: bifenthrin 195° C., triadimefon 195° C., and cyproconazole 205° C. These temperatures indicate upper limits for processing these biocides by HME. The melting points for these biocides are: bifenthrin 57-64.6° C., triadimefon 82.3° C., and cyproconazole 106.2-106.9° C.).
“Friable biocide-composites” comprising a biocide, a thermoplastic and an embrittling agent were formed by HME along with a “solidified biocide-composite” comprising a biocide and an embrittling agent, i.e. no thermoplastic. The organoclay Tixogel MP 100 was used as the embrittling agent. Tixogel MP 100 has a thermal degradation temperature of 222° C. measured as onset of weight loss (FIG. 7, note a slight initial loss of moisture). This temperature represents a practical upper limit for HME when using Tixogel MP 100.

Consider `CC(C)(C)C(=O)C(Oc1ccc(Cl)cc1)n1cncn1` (stereo not shown) [triadimefon, 1-(4-chlorophenoxy)-3,3-dimethyl-1-(1H-1,2,4-triazol-1-yl)-2-butanone], for which the Degradation temperature (TGA, onset of weight loss) was found to be 195 °C.
Compound `CC(C1CC1)C(O)(Cn1cncn1)c1ccc(Cl)cc1` (stereo not drawn) [cyproconazole, α-(4-chlorophenyl)-α-(1-cyclopropylethyl)-1H-1,2,4-triazole-1-ethanol] came in with a Degradation temperature of 205 °C.
Under “TGA, onset of weight loss”, `Cc1c(COC(=O)[C@@H]2[C@H](/C=C(\Cl)C(F)(F)F)C2(C)C)cccc1-c1ccccc1` (relative stereo) [bifenthrin, (2-methyl[1,1′-biphenyl]-3-yl)methyl (1R,3R)-rel-3-[(1Z)-2-chloro-3,3,3-trifluoro-1-propen-1-yl]-2,2-dimethylcyclopropanecarboxylate] came in with a Degradation temperature of 195 °C.
With `O=[N+]([O-])NC1=NCCN1Cc1ccc(Cl)nc1` [Imidacloprid, (2E)-1-[(6-chloro-3-pyridinyl)methyl]-N-nitro-2-imidazolidinimin], the Degradation temperature entry was “about 274 °C”.
